Data taken from US10548864B2, “Enhanced ATRA-related compounds for the treatment of proliferative diseases, autoimmune diseases, and addiction conditions” (Beth Israel Deaconess Medical Center, Inc., priority 2015, dated 2020).

Tests used:
[1] = test system: human normal and breast cancer cell lines; test: Cell growth of human normal and breast cancer cell lines; format: cell-based
Description: Absorbance was determined at 570 nm.
To test this possibility, we chose breast cancer as a model due to the substantial oncogenic role of Pin1 in vitro and in vivo.

GST-cyclophilin = test: Chymotrypsin coupled PPIase activity assay; format: biochemical
Description: Compounds were preincubated with enzymes for 0.5 to 2 hours at 4° C. Ki values obtained from PPIase assays are derived from the Cheng-Prusoff equation: [formula] where Km is the Michaelis constant for the used substrate, S is the initial concentration of the substrate in the assay, and the IC50 value is of the inhibitor. Cell Growth Assays

NIH 3T3 cells = test: Centrosome amplification induced by Pin1 overexpression; settings: 72 hours
[2] = test system: mouse embryonic fibroblasts (MEFs); test: Cell growth assay in Pin1 WT and Pin1 KO MEFs
Description: (§3) For cell growth assays described below, cells were seeded in a density of 3000 cells per well in 96-well flat-bottomed plates, and incubated for 24 h in 10% FBS-supplemented DMEM culture medium. […] Control cells received DMSO at a concentration equal to that in drug-treated cells. After 72 hours, the number of cells was counted after trypsin digestion, or medium containing 0.5 mg/ml 3-(4,5-dimethylthiazol-2-yl)-2,5-diphenyl-2H-tetrazolium bromide was added to each well for 2 hours of incubation at 37° C., followed by removal of the media before the addition of 200 μl DMSO. Absorbance was determined at 570 nm.

MDA-MB-231 cells = test: MDA-MB-231 xenograft in nude mice
Description: Tumor sizes were measured weekly and mice were sacrificed after 7 weeks to collect tumor tissues (37A). […] Pin1 and cyclin D1 in xenograft tumors were assayed by IB (37C).
Tumor sizes were measured weekly and mice were sacrificed after 7 weeks to collect tumor tissues (37G).
Tumor sizes were recorded weekly by a caliber for up to 8 weeks and tumor volumes were calculated using the formula L×W^2×0.52, where L and W represent length and width, respectively.
(§4) In pilot experiments, MDA-MB-231 cells were subcutaneously injected into female nude mice in the flank.

GST-FKBP12 = GST-FKBP12 (Homo sapiens, UniProt P62942); test: Chymotrypsin coupled PPIase activity assay; format: biochemical
Description: (§1) Compounds were preincubated with enzymes for 0.5 to 2 hours at 4° C. Ki values obtained from PPIase assays are derived from the Cheng-Prusoff equation:
(§2) [formula] where Km is the Michaelis constant for the used substrate, S is the initial concentration of the substrate in the assay, and the IC50 value is of the inhibitor. Cell Growth Assays

GST-Pin1 [3] = molecular target: T1, GST-Pin1 (Homo sapiens, UniProt Q13526); test: Chymotrypsin coupled PPIase activity assay; format: biochemical
Description: as §1, §2

human APL NB4 cells [4] = test: NB4 cell growth
Description: as §3

Pin1 [5] = test: Immunoblot of Pin1 and its substrate oncogenes and tumor suppressors in breast cells
Description: For immunoprecipitation and immunoblotting in the examples below, cells were polyethylenimine (PEI)- or lipofemamine-transfected with 8 μg of various plasmids, incubated in 10 cm dishes for 24 hours, and subsequently treatment with drugs as needed. […] After centrifugation at 13,000 g for 10 minutes, one tenth of the supernatant was stored as input, and the remainder was incubated 12 hours with M2 Flag agarose (Sigma). After brief centrifugation, immunoprecipitates were collected, extensively washed with the aforementioned lysis buffer twice, suspended in 2×SDS sample buffer (100 mM Tris-HCl, pH 6.8, 4% SDS, 5% β-mercaptoethanol, 20% glycerol, and 0.1% bromphenol blue), boiled for 10 minutes, and subjected to immunoblotting analysis. […] After electrophoresis, gel was transferred to nitrocellulose membranes using a semidry transfer cell. The transblotted membrane was washed twice with Tris-buffered saline containing 0.1% Tween 20 (TBST). After blocking with TBST containing 5% bovine serum albumin (BSA) for 1 hour, the membrane was incubated with the appropriate primary antibody (diluted 1:1000) in 2% BSA-containing TBST at 4° C. overnight. After incubation with the primary antibody, the membrane was washed three times with TBST for a total of 30 minutes followed by incubation with horseradish peroxidase (HRP)-conjugated goat anti-rabbit or anti-mouse IgG (diluted 1:2500) for 1 hour at room temperature. After three extensive washes with TBST for a total of 30 minutes, the immunoblots were visualized by enhanced chemiluminescence.

Pin1 [6] = molecular target: T2, Pin1 (Mus musculus, UniProt Q9QUR7); test: Pin1 level, mRNA and stability in MEFs (immunoblot, RT-PCR, CHX chase); format: cell-based
T2 construct: endogenous in cells; host or cells: mouse embryonic fibroblasts (MEFs)
Description: RNA from cells was extracted with the Total RNA isolation mini kit (Agilent). cDNA was prepared with transcriptor first strand cDNA synthesis kit (Roche) and PCR was carried out with iQ SYBR Green Supermix (Bio-Rad). Samples were run on the QIAGEN Rotor-Gene Q real-time cycler. GAPDH was used as an internal control. Analysis was performed with the delta-delta ct method. The following primers were used: […]

SKBR3 cells = test: Foci formation assay upon Pin1 overexpression
[7] = in humans; cited from earlier work
RAR = test: Transactivation of RAR downstream target genes
MDA-MB-468 cells = test: MDA-MB-468 xenograft in nude mice
Description: Tumor sizes were measured weekly and mice were sacrificed after 7 weeks to collect tumor tissues (37D). […] Pin1 and cyclin D1 in xenograft tumors were assayed by IB (37F).
as §4

human APL NB4 cells [8] = test: Immunoblot of Pin1 and PML-RARα in APL NB4 cells; format: cell-based; settings: for PML-RARα level: APL cells; for PML-RARα level / Pin1 degradation: 72 hours
MRL/lpr lupus prone mice = test: MRL/lpr lupus prone mice
[9] = test system: APL cells from hCG-PML-RARα transgenic mice; settings: APL mouse model
cyclin D1 promoter = test: Cyclin D1 promoter luciferase activity upon Pin1 overexpression; settings: 72 hours
Pin1 and PML-RARα = Pin1 and PML-RARα immunostaining in bone marrow of APL patients treated with ATRA
Description: Tissue samples were washed with PBS and fixed with 4% paraformaldehyde at room temperature for 20 minutes, followed by permeabilization and blocking with PBS containing 0.1% Triton X-100 and 5% FBS for 1 hour. After another wash with PBS, immunostaining was performed by incubating the cells with mouse anti-Pin1 (1:1000), or rabbit anti-PML (Santa Cruz; 1:100) primary antibodies at 4° C. overnight. Primary antibodies were diluted in PBS containing 0.1% Triton X-100, 0.2% BSA, 0.5 mM PMSF, and 1 mM dithiothreitol. […] Samples were nuclear counterstained with 4,6-diamidino-2-phenylindole (DAPI), mounted and visualized with a LSM510 confocal imaging system.
Bone marrow aspirates were obtained with informed consent from the iliac crest of patients in whom the diagnosis of acute promyelocytic leukemia was suspected based on the morphological evaluation of peripheral blood smear. […] Samples tested positive for the PML/RARα rearrangement by RT-PCR.

GST-Pin1 [10] = molecular target: T1, GST-Pin1; test: Fluorescence polarization pTide competition assay (FP-HTS / FP assay)
Description: Measurements of fluorescence polarization and fluorescence absorbance were made in black 384-well plates (Corning) using a Synergy II plate reader. […] The assay can tolerate up to 10% DMSO.
Molecules that compete with pTide for binding to the active site, e.g., Pin1 substrates, were detected under equilibrium conditions. A Z score was used to identify and rank those molecules that were most competitive with pTide (e.g., that have higher binding affinity). A Z score is defined as Z=(x−μ)/σ, where x is a raw score, μ is the mean of the population, and σ is the standard deviation of the population. Molecules with the most negative Z scores represent those with the highest Pin1 binding affinity. The Z′ value for this assay was around 0.70 and was consistent for day-to-day performance, with a coefficient of variation in the range of 4-5%.

NB4 cells = test: APL cell differentiation (Giemsa staining, FACS with CD14 and CD11b); format: cell-based, human; settings: 72 hours
Text: The latter result could be attributed to the stabilization of RAR protein upon Pin1 KD.

[11] = 5 or 10 mg 21 day ATRA-releasing pellets, 1 week after inoculation
[12] = three sensitive cancer cell lines, 72 hours
[13] = after 10 days of ATRA treatment

T2 sequence (Q9QUR7 whole entry): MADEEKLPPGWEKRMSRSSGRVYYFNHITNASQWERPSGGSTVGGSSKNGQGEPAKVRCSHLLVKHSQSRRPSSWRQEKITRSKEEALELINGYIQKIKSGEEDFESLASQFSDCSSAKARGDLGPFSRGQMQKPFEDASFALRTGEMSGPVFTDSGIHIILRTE
T1 sequence (Q13526 whole entry): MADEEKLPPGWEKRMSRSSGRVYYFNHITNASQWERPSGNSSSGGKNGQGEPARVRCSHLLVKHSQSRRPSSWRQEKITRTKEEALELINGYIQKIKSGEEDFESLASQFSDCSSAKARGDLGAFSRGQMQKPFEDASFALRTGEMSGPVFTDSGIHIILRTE
GST-FKBP12, sequence (P62942 whole entry): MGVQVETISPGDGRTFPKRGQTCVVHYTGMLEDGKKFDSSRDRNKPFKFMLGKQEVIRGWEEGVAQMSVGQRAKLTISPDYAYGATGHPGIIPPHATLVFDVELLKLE

CC1=C(/C=C/C(C)=C/C=C/C(C)=C/C(=O)O)C(C)(C)CCC1 [ATRA, all-trans retinoic acid]
Cell growth, malignant breast cancer cells ([1]; 72 hours): differential susceptibility | Cell growth, non-transformed MCF10A and HMLE cells ([1]; 72 hours): highly resistant | Inhibition of cyclophilin (GST-cyclophilin): did not inhibit | Centrosome amplification induced by Pin1 overexpression (NIH 3T3 cells): dose-dependently and fully inhibited | Inhibition of growth of Pin1 WT MEFs ([2]; Pin1 WT MEFs): relatively high concentrations of ATRA were required | Inhibition of growth of Pin1 KO MEFs ([2]; Pin1 knockout (KO) cells): much more resistant | Tumor growth (MDA-MB-231 cells; [11]): potently and dose-dependently inhibited tumor growth | Endogenous and exogenous Pin1 and cyclin D1 in tumors of Pin1-expressing MDA-MB-231 cells (MDA-MB-231 cells; ATRA implants): dose-dependently reduced both endogenous and exogenous Pin1, and cyclin D1 | Tumor growth, MDA-MB-231 cells stably expressing Pin1 (MDA-MB-231 cells; ATRA implants): effectively inhibited by ATRA in a dose-dependent manner | Pin1 and cyclin D1 in tumors (MDA-MB-231 cells; ATRA-releasing pellets): reduced both Pin1 and its substrate cyclin D1 | Antitumor activity (MDA-MB-231 cells; intraperitoneally 3 times a week for 8 weeks (12.5 mg/kg)): only modest antitumor activity | Inhibition of FKBP12 (GST-FKBP12): did not inhibit | Inhibition of the PPIase activity of Pin1 (GST-Pin1 [3]): fully inhibited | NB4 cell proliferation (human APL NB4 cells [4]): suppressed | Effects on Pin1 and substrate proteins in normal MCF10A cells (Pin1 [5]; MCF10A cells): no appreciable effects | Protein levels of Pin1 and its substrate oncogenes (cyclin D1, HER2, ERa, Akt, NFκB/p65, c-Jun, PKM2) (Pin1 [5]; [12]): dose-dependent protein reduction | Protein levels of Pin1 substrate tumor suppressors (Smad2/3, SMRT) (Pin1 [5]; [12]): protein induction | Pin1 protein level (Pin1 [6]; MEFs, immunoblot): dose-dependently down-regulated Pin1 | Pin1 mRNA levels (Pin1 [6]; MEFs, quantitative RT-PCR): no obvious effects | Degradation of PML-RARα and Pin1 (Pin1 [6]; RARα, β, and γ triple KO MEFs): induced degradation of PML-RARα and Pin1 similar to that for WT controls | Foci formation enhanced by Pin1 overexpression (SKBR3 cells): dose-dependently and fully inhibited | Half-life [7]: ~45 min | Transactivation of RAR downstream target genes (RARβ, TGM2) (RAR): effectively and significantly induces transactivation | Tumor growth (MDA-MB-468 cells; [11]): potently and dose-dependently inhibited tumor growth | Pin1 and cyclin D1 in tumors (MDA-MB-468 cells; ATRA-releasing pellets): reduced both Pin1 and its substrate cyclin D1 | PML-RARα level (human APL NB4 cells [8]): dose-dependently reduced PML-RARα | Pin1 and PML-RARα expression (human APL NB4 cells [8]; NB4 cells, 10 μM for 96 hours): reduced Pin1 and PML-RARα expression | Visual lupus-related phenotypes (fur loss, skin inflammation, lymphoid hyperplasia) (MRL/lpr lupus prone mice; 5 mg ATRA for 8 weeks from 8 weeks of age): drastically suppressed visual lupus-related phenotypes in all six treated mice | Size of spleen and lymph node (MRL/lpr lupus prone mice; 14 week-old ATRA-treated mouse): normal size | Glomerular deposition of IgG, C3, and CD68 (MRL/lpr lupus prone mice; mouse, in vivo): potently inhibited | Hyperkeratinosis (MRL/lpr lupus prone mice; mouse, in vivo): potently inhibited | PML-RARα in the bone marrow [9]: effectively reduced PML-RARα in the bone marrow | Pin1 levels in the bone marrow [9]: reduced Pin1 levels in the bone marrow | Spleen weight [9]: spleen weights nearly at basal levels | Activation of the cyclin D1 promoter by Pin1 overexpression (cyclin D1 promoter): dose-dependently and fully inhibited | PML-RARα level in bone marrow of APL patients (Pin1 and PML-RARα; after 3 days of ATRA treatment): ~40% | Pin1 level in bone marrow of APL patients (Pin1 and PML-RARα; after 3 days of ATRA treatment): ~40% | PML-RARα level in bone marrow of APL patients (Pin1 and PML-RARα; [13]): < 10% | Pin1 level in bone marrow of APL patients (Pin1 and PML-RARα; [13]): < 10%

CC1=C(/C=C/C(C)=C/C=C/C(C)=C\C(=O)O)C(C)(C)CCC1 [Compound 13cRA, 13-cis-retinoic acid]
Inhibition of cyclophilin (GST-cyclophilin): did not inhibit | Inhibition of FKBP12 (GST-FKBP12): did not inhibit | Inhibition of the PPIase activity of Pin1 (GST-Pin1 [3]): fully inhibited | Z score in FP-HTS (GST-Pin1 [10]; ~8200 compounds screened): lowest Z score

O=C(O[C@@H]1Cc2c(O)cc(O)cc2O[C@@H]1c1cc(O)c(O)c(O)c1)c1cc(O)c(O)c(O)c1 [EGCG]
PML-RARα level (human APL NB4 cells [8]): dose-dependently reduced PML-RARα | Pin1 degradation (human APL NB4 cells [8]; NB4 cells): inhibited Pin1 without degrading it | APL cell differentiation (NB4 cells): neither Pin1 inhibitors nor Pin1 KD induced APL cell differentiation | Condition of treated mice (toxic effects) [9]: rather sick | PML-RARα in the bone marrow [9]: effectively reduced PML-RARα in the bone marrow | Spleen weight [9]: spleen weights nearly at basal levels

CCOC(=O)CN1C(=O)c2ccc3c4c(ccc(c24)C1=O)C(=O)N(CC(=O)OCC)C3=O [PiB]
PML-RARα level (human APL NB4 cells [8]): dose-dependently reduced PML-RARα | Pin1 degradation (human APL NB4 cells [8]; NB4 cells): inhibited Pin1 without degrading it | APL cell differentiation (NB4 cells): neither Pin1 inhibitors nor Pin1 KD induced APL cell differentiation

CCCCCCCOc1cc2c(cc1/C(C)=C/c1ccc(C(=O)O)cc1)C(C)(C)CCS2(=O)=O [Ro-415253]
Transactivation of RAR downstream target genes (RARβ, TGM2) (RAR): suppresses it | Pin1 binding in the FP assay (GST-Pin1 [10]): minimal Pin1 binding

COc1cc(C)c(/C=C/C(C)=C/C=C/C(C)=C/C(=O)O)c(C)c1C [acitretin]
Pin1 binding in the FP assay (GST-Pin1 [10]): moderate binding

C=C(c1ccc(C(=O)O)cc1)c1cc2c(cc1C)C(C)(C)CCC2(C)C [bexarotene]
Pin1 binding in the FP assay (GST-Pin1 [10]): marginal binding

O=C(O)Cc1c[nH]c2ccccc12 [indo-3-acetic acid]
Pin1 binding in the FP assay (GST-Pin1 [10]): neither pravastatin nor indo-3-acetic acid demonstrated any binding

Clc1cccc(C(c2ccc3[nH]cnc3c2)n2ccnc2)c1 (centres unmarked) [liarazole]
Inhibition of cell proliferation in combination with ATRA ([1]; AU565 or SKBR3 cells, cytochrome P450 inhibitor plus ATRA): generally additive effects

CC1=C(/C=C/C(C)=C/C=C/C(C)=C/C=O)C(C)(C)CCC1 [retinal]
Pin1 binding in the FP assay (GST-Pin1 [10]): totally inactive

CC1=C(/C=C/C(C)=C/C=C/C(C)=C/CO)C(C)(C)CCC1 [retinol]
Pin1 binding in the FP assay (GST-Pin1 [10]): totally inactive

CC(=O)OC/C=C(C)/C=C/C=C(C)/C=C/C1=C(C)CCCC1(C)C [retinyl acetate]
Pin1 binding in the FP assay (GST-Pin1 [10]): totally inactive

CC1(C)CCC(C)(C)c2cc(NC(=O)c3ccc(C(=O)O)cc3)ccc21 [tamibarotene]
Pin1 binding in the FP assay (GST-Pin1 [10]): moderate binding
